Laboratory results published in patent US20240327393A1 (SIRONAX LTD., priority 2021, published 2024).

test system: HT-1080 (ATCC, CCL-121) cells; experiment: HT-1080 cell viability assay with ferroptosis inducer RSL3 (Cell Titer-Glo); type: cell-based; details: Homo sapiens; HT-1080 cells treated with RSL3; 3-fold, 10-point dilution, 1.1 μM highest concentration; Table 2; read-out: EC50 (nM), ferroptosis inhibitory activity
Procedure, shortened: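 HT-1080 cells (6000 per well) were cultured overnight at 37 °C, then co-treated with RSL3 and compound in a 3-fold, 10-point series topping at 1.1 μM. Viability was read by CellTiter-Glo luminescence and normalized to untreated controls. EC50 came from a sigmoidal non-linear regression fit.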

Row | SMILES | EC50 [nM]
1 | CC1CN(c2ccc(Nc3ccc4nnn(C)c4c3)cc2)CC(C)O1 (centres unmarked) [Compound 133, N-(4-(2,6-dimethylmorpholino)phenyl)-1-methyl-1H-benzo[d][1,2,3]triazol-6-amine] | 100 to 1000
2 | CC1CCN(c2ccc(Nc3ccc4c(=O)n(C)[nH]c4c3)cc2)CC1 [Compound 251, 2-methyl-6-((4-(4-methylpiperidin-1-yl)phenyl)amino)-1,2-dihydro-3H-ind azol-3-one] | 0.1 to 100
3 | CN1Cc2cc(Nc3ccc(N4CCC(C(F)(F)F)CC4)c(F)c3)ccc2C1=O [Compound 204, 5-((3-fluoro-4-(4-(trifluoromethyl)piperidin-1-yl)phenyl)amino)-2-methylisoindolin-1-one] | 0.1 to 100
4 | CC1CCCCN1c1ccc(Nc2ccc3c(c2)n(C)c(=O)n3C)cc1 (centres unmarked) [Compound 368, 1,3-dimethyl-5-((4-(2-methylpiperidin-1-yl)phenyl)amino)-1,3-dihydro-2H-benzo[d]imidazol-2-one] | 0.1 to 100
5 | CC1CCN(c2ccc(Nc3ccc4ccn(C)c4c3)cc2)CC1 [Compound 330, 1-methyl-N-(4-(4-methylpiperidin-1-yl)phenyl)-1H-indol-6-amine] | 0.1 to 100
6 | COc1cc(Nc2ccc3c(c2)n(C)c(=O)n3C)cc(OC)c1OC [Compound 312, 1,3-dimethyl-5-((3,4,5-trimethoxyphenyl)amino)-1,3-dihydro-2H-benzo[d]imidazol-2-one] | 0.1 to 100
7 | Cn1c(=O)oc2cc(Nc3ccc(N4C[C@H]5CC[C@@H]4C5)cc3)ccc21 [Compound 315, 6-((4-((1R,4S)-2-azabicyclo[2.2.1]heptan-2-yl)phenyl)amino)-3-methylbenzo[d] oxazol-2(3H)-one] | 0.1 to 100
8 | CN1Cc2cc(Nc3ccc(-c4ccccc4)cc3)ccc2C1=O [Compound 228, 5-([1,1′-biphenyl]-4-ylamino)-2-methylisoindolin-1-one] | 0.1 to 100
9 | CN1Cc2cc(Nc3ccc(N4CCC(C)(C)CC4)cc3)ccc2C1=O [Compound 211, 5-((4-(4,4-dimethylpiperidin-1 yl)phenyl)amino)-2-methylisoindolin-1-one] | 0.1 to 100
10 | CN1C(=O)COc2cc(Nc3ccc4c(c3)CC(C)(C)C4)ccc21 [Compound 49, 7-((2,2-dimethyl-2,3-dihydro-1H-inden-5-yl)amino)-4-methyl-2H-benzo[b][1,4] oxazin-3(4H)-one] | 0.1 to 100
11 | NC(=O)n1ncc2cc(Nc3ccc(N4CCC(C(F)(F)F)CC4)cc3)ccc21 [Compound 398, 5-((4-(4-(trifluoromethyl)piperidin-1-yl)phenyl)amino)-1H-indazole-1-carboxamide] | 0.1 to 100
12 | Cn1oc2cc(Nc3ccc(N4CCC(C(F)(F)F)CC4)cc3)ccc2c1=O [Compound 187, 2-methyl-6-((4-(4-(trifluoromethyl)piperidin-1-yl)phenyl)amino)benzo[d]isoxazol-3(2H)-one] | 0.1 to 100
13 | CC1CN(c2ccc(Nc3ccc4oc(=O)n(C)c4c3)cc2)CC(C)O1 (centres unmarked) [Compound 420, 5-((4-(2,6-dimethylmorpholino)phenyl)amino)-3-methylbenzo[d]oxazol-2(3H)-one] | 0.1 to 100
14 | CC1CN(c2ccc(Nc3ccc4c(c3)ncn4C)cc2)CC(C)O1 (centres unmarked) [Compound 434, N-(4-(2,6-dimethylmorpholino)phenyl)-1-methyl-1H-benzo[d]imidazol-5-amine] | 0.1 to 100
15 | Cc1cc(C)cc(Nc2ccc3c(c2)CN(C)C3=O)c1 [Compound 226, 5-((3,5-dimethylphenyl)amino)-2-methylisoindolin-1-one] | 0.1 to 100
16 | O=C1CCc2cc(Nc3ccc(N4CCC(C(F)(F)F)CC4)cc3)ccc2N1 [Compound 158, 6-((4-(4-(trifluoromethyl)piperidin-1-yl)phenyl)amino)-3,4-dihydroquinolin-2(1H)-one] | 0.1 to 100
17 | Cn1c(=O)c(=O)n(C)c2cc(Nc3ccc(N4CCC(C(F)(F)F)CC4)cc3)ccc21 [Compound 110, 1,4-dimethyl-6-((4-(4-(trifluoromethyl)piperidin-1-yl)phenyl)amino)-1,4-dihydroquinoxaline-2,3-dione] | 0.1 to 100
18 | CN1C(=O)COc2cc(Nc3ccc(N4CC5(CCC5)C4)cc3)ccc21 [Compound 21, 7-((4-(2-azaspiro[3.3]heptan-2-yl)phenyl)amino)-4-methyl-2H-benzo[b][1,4]oxazin-3(4H)-one] | 0.1 to 100
19 | CCOc1ccc(Nc2ccc3c(c2)n(C)c(=O)n3C)cc1 [Compound 309, 5-((4-ethoxyphenyl)amino)-1,3-dimethyl-1,3-dihydro-2H-benzo[d]imidazol-2-one] | 0.1 to 100
20 | Cc1cc(Nc2ccc3c(c2)n(C)c(=O)n3C)cnc1N1CCC(C(F)(F)F)CC1 [Compound 371, 1,3-dimethyl-5-((5-methyl-6-(4-(trifluoromethyl)piperidin-1-yl)pyridin-3-yl)amino)-1,3-dihydro-2H-benzo[d]imidazol-2-one] | 0.1 to 100

same assay, conditions: Homo sapiens; HT-1080 cells treated with RSL3; 3-fold, 10-point dilution, 1.1 μM highest concentration; Table 3; read-out: EC50 (nM), ferroptosis inhibitory activity

Row | SMILES | EC50 [nM]
21 | COC(C)(C)C1CCN(c2ccc(Nc3ccc4c(c3)OCC(=O)N4)c(C)c2)CC1 [Compound 559, 7-((4-(4-(2-methoxypropan-2-yl)piperidin-1-yl)-2-methylphenyl)amino)-2H-benzo[b][1,4]oxazin-3(4H)-one] | 0.1 to 100
22 | Cc1cc(NC(C)(C)C)ccc1Nc1ccc2c(c1)OCC(=O)N2 [Compound 634, 7-((4-(tert-butylamino)-2-methylphenyl)amino)-2H-benzo[b][1,4]oxazin-3(4H)-one] | 0.1 to 100
23 | Cc1cc(N2CCC(C(F)(F)F)CC2)ccc1Nc1ccc2c(c1)OC[C@H](N)C(=O)N2 [Compound 601, (S)-8-(4-(4-(trifluoromethyl)piperidin-1-yl)-2-methylphenylamino)-3-amino-2,3-dihydrobenzo[b][1,4]oxazepin-4(5H)-one] | 0.1 to 100
24 | O=C1COc2cc(Nc3ccc(N4CCC(C(F)(F)F)CC4)cc3Cl)ccc2N1 [Compound 448, 7-({2-chloro-4-[4-(trifluoromethyl)piperidin-1-yl]phenyl}amino)-2,4-dihydro-1,4-benzoxazin-3-one] | 0.1 to 100
25 | Cc1cc(N2CCC(C(F)(F)F)CC2)ccc1Nc1ccc2c(C(N)=O)cn(C)c2c1 [Compound 551, 1-methyl-6-((2-methyl-4-(4-(trifluoromethyl)piperidin-1-yl)phenyl)amino)-1H-indole-3-carboxamide] | 0.1 to 100
26 | Cc1cc(N2CCC(C(F)(F)F)CC2)ccc1Nc1ccc2c(c1)CN(CC(N)=O)C2 [Compound 579, 2-(5-((2-methyl-4-(4-(trifluoromethyl)piperidin-1-yl)phenyl)amino)isoindolin-2-yl)acetamide] | 0.1 to 100
27 | Cc1cc(N2CCC(O)(C(F)(F)F)CC2)ccc1Nc1ccc2c(c1)OCCC(=O)N2 [Compound 555, 8-((4-(4-hydroxy-4-(trifluoromethyl)piperidin-1-yl)-2-methylphenyl)amino)-2,3-dihydrobenzo[b][1,4]oxazepin-4(5H)-one] | 0.1 to 100
28 | Cc1cc(N2CC(OC(F)(F)F)C2)ccc1Nc1ccc2c(c1)OCC(=O)N2 [Compound 621, 7-((2-methyl-4-(3-(trifluoromethoxy)azetidin-1-yl)phenyl)amino)-2H-benzo[b][1,4]oxazin-3(4H)-one] | 0.1 to 100
29 | COC1(C(F)(F)F)CN(c2ccc(Nc3ccc4c(c3)OCC(=O)N4)c(C)c2)C1 [Compound 633, 7-({4-[3-methoxy-3-(trifluoromethyl)azetidin-1-yl]-2-methylphenyl}amino)-2,4-dihydro-1,4-benzoxazin-3-one] | 0.1 to 100
